Experimental findings from patent publication US20250145594A1, “MODULATORS OF THE INTEGRATED STRESS PATHWAY” (Calico Life Sciences LLC, priority 2020, published 2025) are described below.

Structures are written as SMILES.

By EC50 is commonly meant the concentration at which the effect is half-maximal.

The subject of the test is ATF4 luciferase reporter in HEK293T cells. Description: ATF4-Luc assay (in vitro model of VWMD). As to conditions: Homo sapiens, HEK-293T, 7 h, HEK293T cells carrying the ATF4 luciferase reporter, 1 μg/mL tunicamycin, One Glo luminescence. Type of test: cell-based, human. A digest of the protocol: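 Stable HEK293T line expressing firefly luciferase behind the human ATF4 5′-UTR, treated with 1 μg/mL tunicamycin plus compound for 7 hours. Luminescence read with One Glo; EC50 determined.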
(In a reporter assay the amount or activity of a reporter protein is the signal.)

As to `O=C(NC12CC(n3cc(-c4ccc(C(F)(F)F)cn4)cn3)(C1)C2)[C@H]1C[C@@H](O)c2cc(C(F)(F)F)ccc2O1` [Compound 354, (2R,4R)-4-hydroxy-6-(trifluoromethyl)-N-(3-{4-[5-(trifluoromethyl)pyridin-2-yl]-1H-pyrazol-1-yl}bicyclo[1.1.1]pentan-1-yl)-3,4-dihydro-2H-1-benzopyran-2-carboxamide], the EC50 was under 10 nM. As for `O=C(NC12CC(n3cc(OCCOC(F)(F)F)cn3)(C1)C2)[C@H]1C[C@@H](O)c2cc(F)c(F)cc2O1` [Compound 429, (2R,4R)-6,7-difluoro-4-hydroxy-N-(3-{4-[2-(trifluoromethoxy)ethoxy]-1H-pyrazol-1-yl}bicyclo[1.1.1]pentan-1-yl)-3,4-dihydro-2H-1-benzopyran-2-carboxamide], the half-maximal effective concentration (EC50) was under 10 nM. On to `O=C(NC12CC(n3cc(C(=O)N4CC[C@H](F)C4)cn3)(C1)C2)[C@H]1C[C@@H](O)c2cc(Cl)ccc2O1` [Compound 382, (2R,4R)-6-chloro-N-(3-{4-[(3S)-3-fluoropyrrolidine-1-carbonyl]-1H-pyrazol-1-yl}bicyclo[1.1.1]pentan-1-yl)-4-hydroxy-3,4-dihydro-2H-1-benzopyran-2-carboxamide], for which the 50% effective concentration (EC50) is 50 to 250 nM. With `COc1ncc(-c2cnn(C34CC(NC(=O)[C@H]5C[C@@H](O)c6cc(C(F)(F)F)c(F)cc6O5)(C3)C4)c2)cn1` [Compound 639, (2R,4R)-7-fluoro-4-hydroxy-N-{3-[4-(2-methoxypyrimidin-5-yl)-1H-pyrazol-1-yl]bicyclo[1.1.1]pentan-1-yl}-6-(trifluoromethyl)-3,4-dihydro-2H-1-benzopyran-2-carboxamide] the figure was under 10 nM; with `O=C(NC12CC(n3cc(-c4ccc(C5CC5)cn4)cn3)(C1)C2)[C@H]1C[C@@H](O)c2cc(Cl)c(F)cc2O1` [Compound 571, (2R,4R)-6-chloro-N-{3-[4-(5-cyclopropylpyridin-2-yl)-1H-pyrazol-1-yl]bicyclo[1.1.1]pentan-1-yl}-7-fluoro-4-hydroxy-3,4-dihydro-2H-1-benzopyran-2-carboxamide], under 10 nM. With `O=C(NC12CC(n3cc(-c4ccc(C(F)(F)F)cn4)cn3)(C1)C2)[C@H]1C[C@@H](O)c2cc(F)c(F)cc2O1` [Compound 553, (2R,4R)-6,7-difluoro-4-hydroxy-N-(3-{4-[5-(trifluoromethyl)pyridin-2-yl]-1H-pyrazol-1-yl}bicyclo[1.1.1]pentan-1-yl)-3,4-dihydro-2H-1-benzopyran-2-carboxamide] the figure was under 10 nM; with `O=C(NC12CC(n3cnc(C(=O)N4CC(OC(F)(F)F)C4)c3)(C1)C2)[C@H]1C[C@@H](O)c2cc(Cl)ccc2O1` [Compound 395, (2R,4R)-6-chloro-4-hydroxy-N-(3-{4-[3-(trifluoromethoxy)azetidine-1-carbonyl]-1H-imidazol-1-yl}bicyclo[1.1.1]pentan-1-yl)-3,4-dihydro-2H-1-benzopyran-2-carboxamide], 10 to 50 nM; with `O=C(NC12CC(n3cc(COCCOC(F)(F)F)nn3)(C1)C2)[C@H]1C[C@@H](O)c2cc(Cl)c(F)cc2O1` [Compound 467, (2R,4R)-6-chloro-7-fluoro-4-hydroxy-N-[3-(4-{[2-(trifluoromethoxy)ethoxy]methyl}-1H-1,2,3-triazol-1-yl)bicyclo[1.1.1]pentan-1-yl]-3,4-dihydro-2H-1-benzopyran-2-carboxamide], under 10 nM. The value for `O=C(NC12CC(n3cc(C(=O)N4CC[C@@H](OC(F)F)C4)cn3)(C1)C2)[C@H]1C[C@@H](O)c2cc(Cl)ccc2O1` [Compound 399, (2R,4R)-6-chloro-N-(3-{4-[(3R)-3-(difluoromethoxy)pyrrolidine-1-carbonyl]-1H-pyrazol-1-yl}bicyclo[1.1.1]pentan-1-yl)-4-hydroxy-3,4-dihydro-2H-1-benzopyran-2-carboxamide] was 250 to 500 nM. Take `O=C(NC12CC(n3cc4c(n3)CN(C(=O)COC(F)(F)F)C4)(C1)C2)[C@H]1C[C@@H](O)c2cc(Cl)c(F)cc2O1` [Compound 511, (2R,4R)-6-chloro-7-fluoro-4-hydroxy-N-(3-{5-[(trifluoromethoxy)acetyl]-5,6-dihydropyrrolo[3,4-c]pyrazol-2(4H)-yl}bicyclo[1.1.1]pentan-1-yl)-3,4-dihydro-2H-1-benzopyran-2-carboxamide]: the EC50 is 10 to 50 nM. The value for `O=C(NC12CC(n3cc4cc(COCC(F)(F)F)ccc4n3)(C1)C2)[C@H]1C[C@@H](O)c2cc(Cl)c(F)cc2O1` [Compound 651, (2R,4R)-6-chloro-7-fluoro-4-hydroxy-N-(3-{5-[(2,2,2-trifluoroethoxy)methyl]-2H-indazol-2-yl}bicyclo[1.1.1]pentan-1-yl)-3,4-dihydro-2H-1-benzopyran-2-carboxamide] was under 10 nM. With `O=C(CO[C@H]1C[C@@H](OC(F)(F)F)C1)NC12CC(NC(=O)[C@H]3C[C@@H](O)c4cc(C(F)(F)F)ccc4O3)(C1)C2` [Compound 493, (2R,4R)-4-hydroxy-N-[3-(2-{[(1s,3S)-3-(trifluoromethoxy)cyclobutyl]oxy}acetamido)bicyclo[1.1.1]pentan-1-yl]-6-(trifluoromethyl)-3,4-dihydro-2H-1-benzopyran-2-carboxamide], the EC50 was under 10 nM. The value for `O=C(NC12CC(n3cc(-c4ccn(C(F)(F)F)n4)cn3)(C1)C2)[C@H]1C[C@@H](O)c2cc(Cl)c(F)cc2O1` [Compound 562, (2R,4R)-6-chloro-7-fluoro-4-hydroxy-N-{3-[1-(trifluoromethyl)-1H,1′H-[3,4‘-bipyrazol]-1’-yl]bicyclo[1.1.1]pentan-1-yl}-3,4-dihydro-2H-1-benzopyran-2-carboxamide] was under 10 nM; that for `O=C(NC12CC(n3cc(OCCOC(F)(F)F)cn3)(C1)C2)[C@H]1C[C@@H](O)c2cc(Cl)c(F)cc2O1` [Compound 413, (2R,4R)-6-chloro-7-fluoro-4-hydroxy-N-(3-{4-[2-(trifluoromethoxy)ethoxy]-1H-pyrazol-1-yl}bicyclo[1.1.1]pentan-1-yl)-3,4-dihydro-2H-1-benzopyran-2-carboxamide] was under 10 nM; that for `O=C(N[C@H]1CC[C@H](n2cc(OCCOC(F)(F)F)cn2)CC1)[C@H]1C[C@H](O)c2cc(C(F)(F)F)c(F)cc2O1` [Compound 486, (2R,4R)-7-fluoro-4-hydroxy-N-[(1r,4R)-4-{4-[2-(trifluoromethoxy)ethoxy]-1H-pyrazol-1-yl}cyclohexyl]-6-(trifluoromethyl)-3,4-dihydro-2H-1-benzopyran-2-carboxamide] was under 10 nM. Turning to `O=C(CO[C@H]1C[C@@H](OC(F)(F)F)C1)NC12CC(NC(=O)[C@H]3C[C@@H](O)c4cc(Cl)ccc4O3)(C1)C2` (racemic) [Compound 114, rac-(2R,4R)-6-chloro-4-hydroxy-N-[3-(2-{[(1s,3s)-3-(trifluoromethoxy)cyclobutyl]oxy}acetamido)bicyclo[1.1.1]pentan-1-yl]-3,4-dihydro-2H-1-benzopyran-2-carboxamide], the concentration for a half-maximal effect (EC50) was under 10 nM. The value for `CCO[C@H]1CCN(C(=O)c2cnn(C34CC(NC(=O)[C@H]5C[C@@H](O)c6cc(Cl)ccc6O5)(C3)C4)c2)C1` [Compound 359, (2R,4R)-6-chloro-N-(3-{4-[(3S)-3-ethoxypyrrolidine-1-carbonyl]-1H-pyrazol-1-yl}bicyclo[1.1.1]pentan-1-yl)-4-hydroxy-3,4-dihydro-2H-1-benzopyran-2-carboxamide] was 10 to 50 nM.

In the case of `O=C(NC12CC(n3cc(C(=O)N4CC(CC(F)F)C4)cn3)(C1)C2)[C@H]1C[C@@H](O)c2cc(Cl)ccc2O1` [Compound 377, (2R,4R)-6-chloro-N-(3-{4-[3-(2,2-difluoroethyl)azetidine-1-carbonyl]-1H-pyrazol-1-yl}bicyclo[1.1.1]pentan-1-yl)-4-hydroxy-3,4-dihydro-2H-1-benzopyran-2-carboxamide], the EC50 lay in the range of 250 to 500 nM. `O=C(NC12CC(n3cc(-c4ccc(OC(F)(F)F)cn4)cn3)(C1)C2)[C@H]1C[C@@H](O)c2cc(F)c(F)cc2O1` [Compound 369, (2R,4R)-6,7-difluoro-4-hydroxy-N-(3-{4-[5-(trifluoromethoxy)pyridin-2-yl]-1H-pyrazol-1-yl}bicyclo[1.1.1]pentan-1-yl)-3,4-dihydro-2H-1-benzopyran-2-carboxamide]: the EC50 was under 10 nM.

Consider `O=C(CO[C@H]1C[C@@H](OC(F)(F)F)C1)NC12CCC(NC(=O)[C@H]3C[C@@H](O)c4cc(Cl)c(F)cc4O3)(CC1)[C@@H](O)C2` [Compound 490, (2R,4R)-6-chloro-7-fluoro-4-hydroxy-N-[(2S)-2-hydroxy-4-(2-{[(1s,3R)-3-(trifluoromethoxy)cyclobutyl]oxy}acetamido)bicyclo[2.2.2]octan-1-yl]-3,4-dihydro-2H-1-benzopyran-2-carboxamide], for which the half-maximal effective concentration (EC50) is under 10 nM. With `O=C(NC12CC(n3cc(-c4cnc(C(F)(F)F)c(F)c4)cn3)(C1)C2)[C@H]1C[C@@H](O)c2cc(Cl)ccc2O1` [Compound 347, (2R,4R)-6-chloro-N-(3-{4-[5-fluoro-6-(trifluoromethyl)pyridin-3-yl]-1H-pyrazol-1-yl}bicyclo[1.1.1]pentan-1-yl)-4-hydroxy-3,4-dihydro-2H-1-benzopyran-2-carboxamide] the figure was under 10 nM; with `O=C(NC12CC(n3cc(OC[C@H]4C[C@H](OC(F)(F)F)C4)cn3)(C1)C2)[C@H]1C[C@@H](O)c2cc(Cl)ccc2O1` [Compound 584, (2R,4R)-6-chloro-4-hydroxy-N-[3-(4-{[(1r,3R)-3-(trifluoromethoxy)cyclobutyl]methoxy}-1H-pyrazol-1-yl)bicyclo[1.1.1]pentan-1-yl]-3,4-dihydro-2H-1-benzopyran-2-carboxamide], under 10 nM. As for `O=C(NC12CC(n3cc(C(=O)N4CC(COC(F)(F)F)C4)cn3)(C1)C2)[C@H]1C[C@@H](O)c2ccccc2O1` [Compound 375, (2R,4R)-4-hydroxy-N-[3-(4-{3-[(trifluoromethoxy)methyl]azetidine-1-carbonyl}-1H-pyrazol-1-yl)bicyclo[1.1.1]pentan-1-yl]-3,4-dihydro-2H-1-benzopyran-2-carboxamide], the EC50 is 250 to 500 nM.
